Test system: SU-DHL-1 lymphoma cells
Details: mouse, in vivo

O=P1(N(CCCl)CCCl)NCCCO1 (stereo not drawn) [cyclophosphamide]
animal weight relative to the average weight on day 0: 104.7%±1.6%
mean tumor volume: 367±79 mm^3
tumor volume inhibition rate TGITV: −93%

— patent publication US20240050395A1 (priority 2020, published 2024)
